Test results taken from patent publication US4894173A, “Divalent ion tolerant aromatic sulfonates” (The Standard Oil Company, priority 1988, dated 1990).

Assays:
Assay type in all cases: physicochemical
[1] = Calcium-ion tolerance (calcium precipitation) test; details: for Calcium Precipitation (ppm CA^2+): 10 mEq/L surfactant titrated with 5 M CaCl2 until transmittance (600 nm) 80% of initial; for Calcium Precipitation (ppm CA^2+), lower concentration / Calcium Precipitation (ppm CA^2+), higher concentration: 10 mEq/L; for Calcium Precipitation (ppm CA^2+), lower concentration: one component apparently precipitates at the lower calcium ion concentration; for Calcium Precipitation (ppm CA^2+), higher concentration: remainder precipitates at the higher calcium concentration
Description: Calcium-ion tolerance tests were conducted to quantify the relative solubility of the surfactants in the presence of divalent ions (see Table 2). All of the surfactants of this invention tolerated calcium ion concentrations from 28 to 10,000 times higher than the comparative examples.
^e A 10 mEq/L solution of Surfactant was titrated with 5 M CaCl2
solution until the transmittance of the solution (600 nm) was reduced to
80% of the initial value.
^g One component apparently precipitates out at the lower calcium ion
concentration and the reminder at the higher calcium concentration.

[2] = Surface tension (lowering of the air/water surface tension), Table 2; details: 10 mEq/L, deionized water, 22° C.
Description: The surface activity - lowering of the air/water surface tension - of the
surfactants was also measured. Surface tensions were measured at a
surfactant concentration of 10 milliequivalents/L in deionized water at
22° C. or a Fisher Autotensiomat (de Nouy ring) apparatus. At this
concentration, all the surfactants should be above their critical micell
^f Of a 10 mEq/L solution of surfactant at 22° C.

[3] = 60° C. solubility in deionized (distilled) water and in seawater; design: key to 60° C. Solubility (@ mEq/L), H2O / 60° C. Solubility (@ mEq/L), Seawater: S: completely soluble; P: partially soluble; I: insoluble; T: turbid solution
Description: As mentioned above, surfactants for EOR must be compatible with divalent ion containing brines such as seawater. Solubility tests were carried out in both deionized water and in seawater. The surfactants of this invention (Examples 1-5) were all soluble in seawater. […] A commercial sulfonate (SDBS, Comparative Example 3) was insoluble in seawater. All surfactants were soluble in distilled water.
^ d S = completely soluble P = partially soluble I = insoluble T =

[4] = Foam formation/stability, simple version of the Ross-Miles foam test; details: 10 meq/L
Description: Foam tests were conducted using a simple version of the Ross-Miles foam test. The initial (0 min) foam volume for SDBS was assigned a value of 100. All other foam volumes were related to this value.

[5] = Divalent ion tolerance as stated in the description; details: divalent ion concentration tolerated / stable to
[6] = CMC (critical micelle concentration) from surface tension vs. surfactant concentration curves; details: calcium ion concentration 0
Description: (§1) Surface tensions (in dynes/cm) were measured using the Du Nouy ring method. The reported surface tensions are for 10 meq/L surfactant solutions: which is above the CMC (critical micelle concentration). The CMC's (in meq/L) were determined by examination of surface tension vs. surfactant concentration curves.

[7] = Thermal stability at 90° C.; surfactant activity by two-phase titration; details: for Surfactant Activity (%): 90° C.; for appearance: aged at 90° C.
Description: Surfactant solutions were prepared in distilled water, 1.2M sodium hydroxide, and 1.2M hydrochloric acid. These solutions were aged at 90° C. Samples were withdrawn at regular interval and surfactant activity was determined by two-phase titration.

[8] = Surface tension by Du Nouy ring method at varied calcium ion concentration, Table 3
Description: as §1

CCCCCCCCCCCCc1ccc(O)c(S(=O)(=O)O)c1 [Comparative Example 1]
Calcium Precipitation (ppm CA^2+) [1]: < 80 ppm | Surface Tension [2]: 23.4 Dyne/cm | 60° C. Solubility (@ mEq/L), H2O ([3]; 24 mEq/L): S | solubility in seawater (in words) [3]: either insoluble or partially soluble | 60° C. Solubility (@ mEq/L), Seawater ([3]; 25 mEq/L): I

CCCCCCCCCc1ccc(O)c(S(=O)(=O)O)c1 [Comparative Example 2]
Calcium Precipitation (ppm CA^2+) [1]: 160 ppm | Surface Tension [2]: 24.9 Dyne/cm | 60° C. Solubility (@ mEq/L), H2O ([3]; 30 mEq/L): S,T | solubility in seawater (in words) [3]: either insoluble or partially soluble | 60° C. Solubility (@ mEq/L), Seawater ([3]; 28 mEq/L): P

CCCCCCC(CO)CCC(C)c1ccc(S(=O)(=O)O)cc1 (stereo not shown) [Example 1]
Calcium Precipitation (ppm CA^2+) [1]: 2800 ppm | Surface Tension [2]: 25.1 Dyne/cm | 60° C. Solubility (@ mEq/L), H2O ([3]; 18 mEq/L): S

CCCCCC(CO)CCC(C)c1ccc(S(=O)(=O)O)cc1 (stereo not shown) [Example 2]
Calcium Precipitation (ppm CA^2+), lower concentration [1]: 355 ppm | Calcium Precipitation (ppm CA^2+), higher concentration [1]: 20000 ppm | Surface Tension [2]: 25.6 Dyne/cm | 60° C. Solubility (@ mEq/L), H2O ([3]; 35 mEq/L): S | 60° C. Solubility (@ mEq/L), Seawater ([3]; 34 mEq/L): S

CCCCCCCCC(CO)CCC(C)c1ccc(S(=O)(=O)O)cc1 (stereo not shown) [Example 3]
Calcium Precipitation (ppm CA^2+) [1]: 40K | Surface Tension [2]: 26.4 Dyne/cm | 60° C. Solubility (@ mEq/L), H2O ([3]; 18 mEq/L): S | 60° C. Solubility (@ mEq/L), Seawater ([3]; 27 mEq/L): S

CCCCCCC(CO)Cc1ccc(S(=O)(=O)O)cc1 (stereo not shown) [Example 4]
Calcium Precipitation (ppm CA^2+), lower concentration [1]: 350 ppm | Calcium Precipitation (ppm CA^2+), higher concentration [1]: 57000 ppm | Surface Tension [2]: 25.2 Dyne/cm | 60° C. Solubility (@ mEq/L), H2O ([3]; 15 mEq/L): S | 60° C. Solubility (@ mEq/L), Seawater ([3]; 26 mEq/L): S

CCCCCCCCC(CO)Cc1ccc(S(=O)(=O)O)cc1 (stereo not shown) [Example 5]
Calcium Precipitation (ppm CA^2+) [1]: 100K | Surface Tension [2]: 29.3 Dyne/cm | 60° C. Solubility (@ mEq/L), H2O ([3]; 15 mEq/L): S | 60° C. Solubility (@ mEq/L), Seawater ([3]; 27 mEq/L): S

sodium dodecylbenzenesulfonate [SDBS]
Calcium Precipitation (ppm CA^2+) [1]: 90 ppm | Foam Volume (relative to initial SDBS = 100) ([4]; 0 min): 100 | Foam Volume (relative to initial SDBS = 100) ([4]; +5 min): 94 | Foam Volume (relative to initial SDBS = 100) ([4]; +15 min): 83 | Foam Volume (relative to initial SDBS = 100) ([4]; +30 min): 77 | Foam Volume (relative to initial SDBS = 100) ([4]; +45 min): 71 | Surface Tension [2]: 28.6 Dyne/cm | divalent ion tolerance [5]: 100 ppm | 60° C. Solubility (@ mEq/L), H2O ([3]; 27 mEq/L): S | solubility in seawater (in words) [3]: insoluble | 60° C. Solubility (@ mEq/L), Seawater ([3]; 27 mEq/L): I | CMC [6]: 1 meq/L | Surfactant Activity (%) ([7]; 1.2 M HCl, 0 hr): 100% | Surfactant Activity (%) ([7]; 1.2 M HCl, 305 hr): 92% | Surfactant Activity (%) ([7]; 1.2 M HCl, 500 hr): 59% | Surfactant Activity (%) ([7]; 1.2 M HCl, 720 hr): 41% | appearance ([7]; 1.2 M HCl): ppt | Surfactant Activity (%) ([7]; 1.2 M NaOH, 0 hr): 1% | appearance ([7]; 1.2 M NaOH): ppt | Surfactant Activity (%) ([7]; distilled water, 0 hr): 100% | Surfactant Activity (%) ([7]; distilled water, 330 hr): 93% | Surfactant Activity (%) ([7]; distilled water, 525 hr): 93% | Surfactant Activity (%) ([7]; distilled water, 740 hr): 93% | appearance ([7]; distilled water): clear | Surface Tension ([8]; 10 meq/L surfactant, calcium ion concentration 0): 29 dynes/cm | Surface Tension (observation in words) ([8]; calcium ion concentration 1000 PPM): surfactant precipitate | Surface Tension (observation in words) ([8]; calcium ion concentration 10,000 PPM): surfactant precipitate
